From patent US20240368134A1, “AROMATIC COMPOUND, PHARMACEUTICAL COMPOSITION, AND APPLICATION THEREOF” (SHANGHAI KYGENT PHARMACEUTICAL CO., LTD, priority 2021, published 2024)

Tests used:
MSTO-211H cells = test: Tumor cell proliferation inhibition experiment (Cell Titer Glo), MSTO-211H; type: cell-based; conditions: Homo sapiens, 72 h, MSTO-211H lung cancer cells, three days incubation
Procedure: (§1) Cell Titer Glo luminescent cell viability assay kit was used to quantify the ATP content in cells, so as to quantify the number of viable cells. […] On the second day, the compound was added to the 96-well plate after a three-fold serial dilution to eight concentrations, and incubated at 37° C. for three days in the 5% carbon dioxide incubator. The culture medium was treated with the addition of Cell Titer Glo luminescent cell viability assay kit (Promega G7570) reagent, incubated for 10 minutes, and then placed in Envision (Pelkin Elmer) to read the luminescence signal. DMSO was used instead of the compound as a control to calculate the inhibition rate (inhibition rate %=(1−compound signal/DMSO signal)*100), and then standard four parameter curve fitting was used to calculate the inhibitory activity IC50.

NCI-H2052 cells = test: Tumor cell proliferation inhibition experiment (Cell Titer Glo), NCI-H2052; type: cell-based; conditions: Homo sapiens, 72 h, NCI-H2052 lung cancer cells, three days incubation
Procedure: as §1

In the case of CNC(=O)c1cc2c(c(F)c1-c1c(Cl)c(F)cc3c1C[C@@](CN[C@H]1CC[C@](C)(O)CC1)(c1ccccc1)O3)[C@@H]1C[C@@H]1O2 (single isomer, unassigned) [Compound 14a2], the IC50 (MSTO-211H cells) is reported as 390 nM and the IC50 (NCI-H2052 cells) is reported as 590 nM.

CNC(=O)c1cc2c(c(F)c1-c1c(Cl)c(F)cc3c1C[C@](c1ccccc1)([C@@H]1CCCN1)O3)CC1(CC1)C2 [Compound 1a] showed an IC50 (MSTO-211H cells) of 2190 nM and an IC50 (NCI-H2052 cells) of 4750 nM.

Work on CNC(=O)c1cc2c(c(F)c1-c1c(Cl)c(F)cc3c1C[C@](c1ccccc1)([C@@H]1CCCN1)O3)N1CCCC1CO2 (stereo partly shown) [Compound 3a] yielded an IC50 (MSTO-211H cells) of 976 nM and an IC50 (NCI-H2052 cells) of 1870 nM.

CNC(=O)c1cc2c(c(F)c1-c1c(Cl)c(F)cc3c1C[C@](c1ccccc1)([C@@H]1CCCN1)O3)N1C[C@H](O)CC1CO2 (stereo partly shown) [Compound 4a] was tested, and the IC50 (MSTO-211H cells) was > 10000 nM and the IC50 (NCI-H2052 cells) was 8370 nM.

CNC(=O)c1cc2c(c(F)c1-c1c(Cl)c(F)cc3c1C[C@](c1ccccc1)([C@@H]1CCCN1)O3)N1C[C@@H](F)CC1CO2 (stereo partly shown) [Compound 5a] gave an IC50 (MSTO-211H cells) of 1940 nM and an IC50 (NCI-H2052 cells) of 3140 nM.

For CNC(=O)c1cnc(OCCO)c(O)c1-c1c(Cl)c(F)cc2c1C[C@](c1ccccc1)([C@@H]1CCCN1)O2 [Compound 6a], the IC50 (MSTO-211H cells) was > 10000 nM and the IC50 (NCI-H2052 cells) was > 10000 nM.

CNC(=O)c1cnc(OCCO)c(OC)c1-c1c(Cl)c(F)cc2c1C[C@](c1ccccc1)([C@@H]1CCCN1)O2 [Compound 7a] gave an IC50 (MSTO-211H cells) of 9800 nM and an IC50 (NCI-H2052 cells) of 9080 nM.

CNC(=O)c1cnc(OCCO)c(N)c1-c1c(Cl)c(F)cc2c1C[C@](c1ccccc1)([C@@H]1CCCN1)O2 [Compound 8a] was tested, and the IC50 (MSTO-211H cells) was > 10000 nM and the IC50 (NCI-H2052 cells) was > 10000 nM.

For C#Cc1c(OCCO)ncc(C(=O)NC)c1-c1c(Cl)c(F)cc2c1C[C@](c1ccccc1)([C@@H]1CCCN1)O2 [Compound 9a], the IC50 (MSTO-211H cells) was > 10000 nM and the IC50 (NCI-H2052 cells) was 7970 nM.

In the case of CNC(=O)c1cnc(OCCO)c(F)c1-c1c(Cl)c(F)cc2c1C[C@](c1ccccc1)(c1ccn[nH]1)O2 [Compound 11a], the IC50 (MSTO-211H cells) is reported as > 10000 nM and the IC50 (NCI-H2052 cells) is reported as > 10000 nM.

For CNC(=O)c1cnc(OCCO)c(F)c1-c1c(C#N)c(F)cc2c1C[C@](c1ccccc1)([C@@H]1CCCN1)O2 [Compound 12a], the IC50 (MSTO-211H cells) was > 10000 nM and the IC50 (NCI-H2052 cells) was > 10000 nM.

CNC(=O)c1cc2c(c(F)c1-c1c(Cl)c(F)cc3c1C[C@@](CN[C@H]1CC[C@](C)(O)CC1)(c1ccccc1)O3)[C@H]1C[C@H]1O2 [Compound 14a1] showed an IC50 (MSTO-211H cells) of 220 nM and an IC50 (NCI-H2052 cells) of 290 nM.

In the case of CNC(=O)c1cc2c(c(F)c1-c1c(Cl)c(F)cc3c1C[C@](c1ccccc1)([C@@H]1CC4(CC4)CN1)O3)N1CCCC1CO2 (stereo partly shown) [Compound 15a], the IC50 (MSTO-211H cells) is reported as 2880 nM and the IC50 (NCI-H2052 cells) is reported as 2730 nM.

For CNC(=O)c1cnc(OCCO)c(F)c1-c1c(Cl)c(F)cc2c1C[C@](c1ccccc1)([C@@H]1CCC(=O)N1)O2 [Compound 19a], the IC50 (MSTO-211H cells) was > 10000 nM and the IC50 (NCI-H2052 cells) was > 10000 nM.

For CNC(=O)c1cc2c(c(F)c1-c1c(Cl)c(F)cc3c1C[C@](c1ccccc1)([C@@H]1CCC(=O)N1)O3)C1CC1O2 (stereo partly shown) [Compound 20a], the IC50 (MSTO-211H cells) was > 10000 nM and the IC50 (NCI-H2052 cells) was > 10000 nM.

Compound CNC(=O)c1cc2c(c(F)c1-c1c(Cl)c(F)cc3c1C[C@@](CN[C@H]1CC[C@](C)(O)CC1)(c1ccccc1)O3)OC1CC21 (stereo partly shown) [Compound 22a] has an IC50 (MSTO-211H cells) of 50 nM and an IC50 (NCI-H2052 cells) of 90 nM.

For C[C@]1(O)CC[C@H](NC[C@@]2(c3ccccc3)Cc3c(cc(F)c(Cl)c3-c3c(C(N)=O)cc4c(c3F)C3CC3O4)O2)CC1 (stereo partly shown) [Compound 23a], the IC50 (MSTO-211H cells) was 110 nM and the IC50 (NCI-H2052 cells) was 200 nM.

Work on C[C@]1(O)CC[C@H](NC[C@@]2(c3ccccc3)Cc3c(cc(F)c(Cl)c3-c3c(C(N)=O)cc4c(c3F)OC3CC43)O2)CC1 (stereo partly shown) [Compound 24a] yielded an IC50 (MSTO-211H cells) of 20 nM and an IC50 (NCI-H2052 cells) of 40 nM.

CNC(=O)c1cc2c(c(F)c1-c1c(Cl)c(F)cc3c1[C@H](C)[C@@](CN[C@H]1CC[C@](C)(O)CC1)(c1ccccc1)O3)C1CC1O2 (stereo partly shown) [Compound 25a] was tested, and the IC50 (MSTO-211H cells) was 150 nM and the IC50 (NCI-H2052 cells) was 260 nM.

With CNC(=O)c1cc2c(c(F)c1-c1c(Cl)c(F)cc3c1[C@H](C)[C@@](CN[C@H]1CC[C@](C)(O)CC1)(c1ccccc1)O3)OC1CC21 (stereo partly shown) [Compound 26a] the IC50 (MSTO-211H cells) was 30 nM and the IC50 (NCI-H2052 cells) was 40 nM.
